Experimental findings from patent US6545032B1, “Synthesis of [3,5,7]-H-imidazo[1,5-a] imidazol-2(3H)-one compounds” (Torrey Pines Institute for Molecular Studies, priority 1999, dated 2003) are described below.

One test deals with T1, mu opiate receptor (Rattus norvegicus, UniProt P33535).
T1 construct: from tissue; host or cells: rat brain membranes/homogenate
The experiment in a line: Inhibition of [3H]DAMGO binding to the mu opiate receptor in rat brain homogenates. The arrangement: Mean: unit not given beside the values. The following applies: 0.08 mg of compound per milliliter, 7 nM 3H-labeled DAMGO, rat brain membranes; for % Bound: [3H]DAMGO bound; for Mean: mean bound radioactivity of [3H]DAMGO; for Minus NSB*: mean minus non-specific binding; for % Inhibition: percent inhibition of DAMGO binding. The method, boiled down: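 Members of an imidazo-imidazolone compound library were tested for blocking binding of [^3H]DAMGO, a mu opiate receptor-specific ligand, to rat brain membranes. Each 0.65 mL tube held 0.08 mg of compound mixture per milliliter, 0.5 mL membrane suspension (0.1 mg of protein) and 7 nM ^3H-labeled DAMGO (36 Ci/mmol) in 50 mM Tris-HCl buffer (pH 7.4).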

For the next test, the target named is T2, kappa opiate receptor (Cavia porcellus, UniProt P41144).
T2 construct: guinea pig cortices and cerebella were homogenized in 40 mL of Buffer A; from tissue; host or cells: guinea pig cortices and cerebella, crude membrane suspension
The experiment in a line: Inhibition of tritiated U69,593 binding to the kappa opiate receptor in guinea pig brain homogenates. The arrangement: Mean: unit not given beside the values. The following applies: 3 nm tritiated U69,593, guinea pig brain membranes; for % Bound: [3H]U69,593 bound; for % Inhibition: inhibition of [3H]U69,593 binding; for Mean: mean bound radioactivity of [3H]U69,593, 2.5 hours 25° C.; for Minus NSB: mean minus non-specific binding. The method, boiled down:
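Guinea pig cortex and cerebellum membranes in 50 mM Tris-HCl pH 7.4 incubated with 3 nM [³H]U69,593 for 2.5 h at 25 °C, then filtered and bound radioactivity counted. Unlabelled U50,488 served as competitor for standard curve and nonspecific binding.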

T2 sequence (P41144 whole entry): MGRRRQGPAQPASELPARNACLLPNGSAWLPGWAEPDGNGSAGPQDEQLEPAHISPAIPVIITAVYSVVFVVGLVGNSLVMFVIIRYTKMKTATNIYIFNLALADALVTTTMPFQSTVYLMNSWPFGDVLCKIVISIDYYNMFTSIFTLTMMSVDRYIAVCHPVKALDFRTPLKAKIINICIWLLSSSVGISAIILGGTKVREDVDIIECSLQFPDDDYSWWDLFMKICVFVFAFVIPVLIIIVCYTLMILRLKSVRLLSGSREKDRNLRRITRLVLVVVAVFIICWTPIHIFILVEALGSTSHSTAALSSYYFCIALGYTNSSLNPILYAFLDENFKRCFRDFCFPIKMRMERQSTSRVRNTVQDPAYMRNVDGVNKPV
T1 sequence (P33535 whole entry): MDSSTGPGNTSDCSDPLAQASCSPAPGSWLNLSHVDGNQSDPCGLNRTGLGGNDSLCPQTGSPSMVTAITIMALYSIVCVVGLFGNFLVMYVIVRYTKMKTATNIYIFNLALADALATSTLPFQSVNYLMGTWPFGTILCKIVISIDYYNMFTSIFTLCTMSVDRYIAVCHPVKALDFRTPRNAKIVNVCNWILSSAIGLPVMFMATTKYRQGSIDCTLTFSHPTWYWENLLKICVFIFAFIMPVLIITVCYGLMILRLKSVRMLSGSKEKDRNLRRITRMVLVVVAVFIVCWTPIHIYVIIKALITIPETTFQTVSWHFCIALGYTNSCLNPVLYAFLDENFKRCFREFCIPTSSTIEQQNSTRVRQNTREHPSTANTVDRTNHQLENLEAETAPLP

As a reminder, the % Inhibition is the drop in the measured response relative to a control, in per cent. For the compound `Cc1nc(Cc2ccc(O)cc2)c2n1C(C(C)C)C(=O)N2` (stereo not shown) [Pool 48], on mu opiate receptor, the “% Bound” value is reported as 44%, the Mean was determined as 728.5, the “Minus NSB*” value stood at 420.50 and the “% Inhibition” value was found to be 56%. Moreover, on kappa opiate receptor, the “% Bound” value turned out to be 84.653%, the “% Inhibition” value was 15.347%, the Mean is recorded as 1784 and the “Minus NSB” value was found to be 877.00.

In the case of `Cc1nc(C)n2c1NC(=O)C2C(C)C` (stereo not shown) [Pool 51], at mu opiate receptor, the “% Bound” value is 62%, the Mean is given as 902.75, the “Minus NSB*” value is reported as 594.75 and the “% Inhibition” value is 38%. Moreover, at kappa opiate receptor, the “% Bound” value is reported as 71.313%, the “% Inhibition” value is given as 28.687%, the Mean came to 1645.8 and the “Minus NSB” value is 738.80.

`Cc1nc(C(C)C)c2n1C(C(C)C)C(=O)N2` (stereo not shown) [Pool 52]: at mu opiate receptor, the “% Bound” value came out at 68%, the Mean turned out to be 959.85, the “Minus NSB*” value is reported as 651.85 and the “% Inhibition” value amounted to 32%. On kappa opiate receptor, the “% Bound” value was 74.744%, the “% Inhibition” value is on record as 25.256%, the Mean was found to be 1681.35 and the “Minus NSB” value stood at 774.35.

With `Cc1nc(CC(C)C)c2n1C(C(C)C)C(=O)N2` (stereo not shown) [Pool 53], at mu opiate receptor, the “% Bound” value stood at 71%, the Mean is 988.95, the “Minus NSB*” value came out at 680.95 and the “% Inhibition” value is 29%. For the same compound, at kappa opiate receptor, the “% Bound” value is listed as 106.356%, the “% Inhibition” value is given as −6.356%, the Mean is given as 2008.85 and the “Minus NSB” value was 1101.85.

For the compound `CCC(C)c1nc(C)n2c1NC(=O)C2C(C)C` (stereo not shown) [Pool 54], on mu opiate receptor, the “% Bound” value is reported as 53%, the Mean is given as 815.2, the “Minus NSB*” value came to 507.20 and the “% Inhibition” value came to 47%. At kappa opiate receptor, the “% Bound” value came out at 100.410%, the “% Inhibition” value is listed as −0.410%, the Mean stood at 1947.25 and the “Minus NSB” value was 1040.25.

`CC(C)Cc1nc(C(C)C)c2n1C(C(C)C)C(=O)N2` (stereo not shown) [Pool 125]: at mu opiate receptor, the “% Bound” value is reported as 48%, the Mean amounted to 763.7, the “Minus NSB*” value is recorded as 455.70 and the “% Inhibition” value was 52%. At kappa opiate receptor, the “% Bound” value is listed as 62.384%, the “% Inhibition” value is given as 37.616%, the Mean is on record as 1553.3 and the “Minus NSB” value was 646.30.

With `CCC(C)Cc1nc(C(C)C)c2n1C(C(C)C)C(=O)N2` (stereo not shown) [Pool 126], on mu opiate receptor, the “% Bound” value worked out at 64%, the Mean was 918.7, the “Minus NSB*” value is listed as 610.70 and the “% Inhibition” value was determined as 36%. For the same compound, at kappa opiate receptor, the “% Bound” value turned out to be 73.311%, the “% Inhibition” value amounted to 26.689%, the Mean amounted to 1666.5 and the “Minus NSB” value came out at 759.50.

Consider `CC(C)CCc1nc(C(C)C)c2n1C(C(C)C)C(=O)N2` (stereo not shown) [Pool 127], for which, on mu opiate receptor, the “% Bound” value is 63%, the Mean was found to be 909.6, the “Minus NSB*” value was determined as 601.60 and the “% Inhibition” value is 37%. For the same compound, on kappa opiate receptor, the “% Bound” value is listed as 66.178%, the “% Inhibition” value amounted to 33.822%, the Mean was determined as 1592.6 and the “Minus NSB” value is reported as 685.60.

In the case of `CC(C)c1nc(C(C)(C)C)n2c1NC(=O)C2C(C)C` (stereo not shown) [Pool 135], at mu opiate receptor, the “% Bound” value was determined as 65%, the Mean was determined as 931.85, the “Minus NSB*” value turned out to be 623.85 and the “% Inhibition” value is reported as 35%. Also, on kappa opiate receptor, the “% Bound” value was found to be 69.170%, the “% Inhibition” value was 30.830%, the Mean is given as 1623.6 and the “Minus NSB” value amounted to 716.60.

For `CC(C)c1nc(CC(C)(C)C)n2c1NC(=O)C2C(C)C` (stereo not shown) [Pool 136], at mu opiate receptor, the “% Bound” value is reported as 72%, the Mean was determined as 991, the “Minus NSB*” value is 683.00 and the “% Inhibition” value is on record as 28%. At kappa opiate receptor, the “% Bound” value amounted to 80.589%, the “% Inhibition” value came out at 19.411%, the Mean was 1741.9 and the “Minus NSB” value is reported as 834.90.

Regarding `CC(C)c1nc(C2CCCCC2)n2c1NC(=O)C2C(C)C` (stereo not shown) [Pool 137], at mu opiate receptor, the “% Bound” value is on record as 66%, the Mean came to 933.35, the “Minus NSB*” value amounted to 625.35 and the “% Inhibition” value worked out at 34%. On kappa opiate receptor, the “% Bound” value is reported as 129.619%, the “% Inhibition” value is reported as −29.619%, the Mean came to 2249.85 and the “Minus NSB” value is listed as 1342.85.

Consider `CC(C)c1nc(CC2CCCCC2)n2c1NC(=O)C2C(C)C` (stereo not shown) [Pool 138], for which, at mu opiate receptor, the “% Bound” value came to 60%, the Mean stood at 877.8, the “Minus NSB*” value came to 569.80 and the “% Inhibition” value worked out at 40%. In addition, on kappa opiate receptor, the “% Bound” value amounted to 70.685%, the “% Inhibition” value turned out to be 29.315%, the Mean came out at 1639.3 and the “Minus NSB” value is reported as 732.30.

For `CC(C)c1nc(C(C2CCCCC2)C2CCCCC2)n2c1NC(=O)C2C(C)C` (stereo not shown) [Pool 139], at mu opiate receptor, the “% Bound” value is 65%, the Mean was determined as 928.85, the “Minus NSB*” value is listed as 620.85 and the “% Inhibition” value is recorded as 35%. In addition, at kappa opiate receptor, the “% Bound” value came out at 58.779%, the “% Inhibition” value stood at 41.221%, the Mean is given as 1515.95 and the “Minus NSB” value stood at 608.95.

For the compound `CC(C)c1nc(CCCC2CCCCC2)n2c1NC(=O)C2C(C)C` (stereo not shown) [Pool 140], at mu opiate receptor, the “% Bound” value stood at 32%, the Mean came to 615.55, the “Minus NSB*” value is recorded as 307.55 and the “% Inhibition” value was determined as 68%. On kappa opiate receptor, the “% Bound” value is 49.903%, the “% Inhibition” value turned out to be 50.097%, the Mean was determined as 1424 and the “Minus NSB” value is listed as 517.00.

Turning to `Cc1nc(C(C)C)c2n1C(C(C)C)C(=O)N2` (stereo not shown) [Pool 142], at mu opiate receptor, the “% Bound” value amounted to 67%, the Mean is on record as 946.05, the “Minus NSB*” value was 638.05 and the “% Inhibition” value is 33%. For the same compound, on kappa opiate receptor, the “% Bound” value was 79.324%, the “% Inhibition” value was 20.676%, the Mean came to 1728.8 and the “Minus NSB” value stood at 821.80.

For the compound `CC(C)c1nc(C2CCC2)n2c1NC(=O)C2C(C)C` (stereo not shown) [Pool 144], at mu opiate receptor, the “% Bound” value is 59%, the Mean came out at 867.3, the “Minus NSB*” value came out at 559.30 and the “% Inhibition” value was 41%. Further, at kappa opiate receptor, the “% Bound” value turned out to be 52.172%, the “% Inhibition” value worked out at 47.828%, the Mean was determined as 1447.5 and the “Minus NSB” value turned out to be 540.50.

For `CC(C)c1nc(C2CCCC2)n2c1NC(=O)C2C(C)C` (stereo not shown) [Pool 145], on mu opiate receptor, the “% Bound” value was determined as 71%, the Mean is given as 986.9, the “Minus NSB*” value is 678.90 and the “% Inhibition” value amounted to 29%. Besides, on kappa opiate receptor, the “% Bound” value came out at 61.501%, the “% Inhibition” value is 38.499%, the Mean came to 1544.15 and the “Minus NSB” value was 637.15.
